Data on 2 molecules can be found in patent US20220218695A1, “COMBINATION OF AN ALPHA2-ADRENOCEPTOR SUBTYPE C (ALPHA-2C) ANTAGONISTS WITH A TASK1/3 CHANNEL BLOCKER FOR THE TREATMENT OF SLEEP APNEA” (Bayer Aktiengesellschaft, priority 2019, published 2022).

Structures are written as SMILES.

The test system of this experiment is upper airway collapsibility in anaesthetized, spontaneously breathing pigs. Briefly: pig model of obstructive sleep apnea (OSA): upper airway collapsibility under negative pressure. It counts as in vivo, German Landrace pigs. From the text:
The therapeutic potential of the combination of an α2-Adrenoceptor subtype C (alpha-2C) antagonists with a TASK1/3 channel blocker according to the present invention in sleep apnea can be assessed preclinically in a pig model of obstructive sleep apnea (OSA).
Using negative pressure, it is possible to induce collapse and thus obstruction of the upper respiratory tract in anaesthetized, spontaneously breathing pigs (Wirth K. J. et al., Sleep 36(5)(2013) pp. 699-708).
German Landrace pigs are used for the model. The pigs are anaesthetized and tracheotomized. Two tracheal cannulas are inserted into the trachea, one into the rostral part and the other into the caudal part of the trachea. Using a connection piece, the rostral cannula is connected to a tube to the negative pressure device and to the distal tracheal cannula. The distal tracheal cannula is additionally connected to a tube with an open end to atmosphere via a connection piece that served for free tracheal breathing, circumventing the upper airway. By appropriate opening and clamping of those tubes breathing can be switched from nasal breathing to breathing through the caudal tracheal cannula, circumventing the upper airway, and the (isolated) upper airway can be connected to the negative pressure device, causing airflow in the inspiratory direction.
At certain points in time, the collapsibility of the upper respiratory tract is tested by having the pig breathe via the caudal cannula and applying negative pressures of −50, −100 and −150 cm water head (cm H2O) to the upper respiratory tract. This causes the upper respiratory tract to collapse, which manifests itself in an interruption of the airflow and a pressure drop in the tube system. This test is conducted prior to the administration of the test substance and at certain intervals after the administration of the test substance. An appropriately effective test substance can prevent this collapse of the respiratory tract in the inspiratory phase.

Where [1] appears, read: alpha-2C antagonist alone, 90 min after bolus injection […] and start of infusion 0.005 μg/kg/h.
Setting [2] is: 0 min (time point of i.v. bolus […] and start of infusion 0.005 μg/kg/h; baseline).
Where [3] appears, read: 30 min after i.v. bolus […] and start of infusion 0.005 μg/kg/h, alpha-2C antagonist alone.
[4] abbreviates: 60 min after i.v. bolus […] and start of infusion 0.005 μg/kg/h, alpha-2C antagonist alone.
Setting [5] is: 90 min after i.v. bolus […] and start of infusion 0.005 μg/kg/h, time point of nasal application of TASK1/3 channel blocker.
The mark [6] stands for this setting: 0 min (time point of intranasal administration of 0.3 μg; baseline), TASK1/3 blocker alone.
Setting [7] is: 10 min after intranasal administration of 0.3 μg, TASK1/3 blocker alone.
Where [8] appears, read: 30 min after intranasal administration of 0.3 μg, TASK1/3 blocker alone.
[9] abbreviates: 60 min after intranasal administration of 0.3 μg, TASK1/3 blocker alone.

For `COC[C@@]1(C)CCCN2CCc3c(oc4ccccc34)[C@@H]21` [(1S,12bS)-1-(methoxymethyl)-1-methyl-1,3,4,6,7,12b-hexahydro-2H-[1]benzofuro[2,3-a]quinolizine], under setting [1], the “upper airway collapsibility at negative pressures of −50 cm head (cm H2O)” value is reported as “only inhibited”; the “upper airway collapsibility at negative pressures of −100 and −150 cm head (cm H2O)” value is recorded as “induced”. In addition, for the setting “alpha-2C antagonist alone, i.v. bolus […] + infusion 0.005 μg/kg/h”, the “effectiveness of dose on upper airway collapsibility” value is given as “non effective dose”. The “inhibited upper airway collapsibility at all negative pressures of −50, −100 and −150 cm head (cm H2O)” value (alpha-2C antagonist alone, i.v. bolus […] followed by i.v. infusion 0.005 μg/kg/h for four hours) is “at no time point”. Besides, under setting [2], the “Percent pigs without collaps −50 cm H2O, %” value was determined as 0%; the “Percent pigs without collaps −100 cm H2O, %” value came to 0%; the “Percent pigs without collaps −150 cm H2O, %” value turned out to be 0%. Also, under setting [3], the “Percent pigs without collaps −50 cm H2O, %” value was found to be 0%; the “Percent pigs without collaps −100 cm H2O, %” value was found to be 0%; the “Percent pigs without collaps −150 cm H2O, %” value came to 0%. Also, under setting [4], the “Percent pigs without collaps −50 cm H2O, %” value was found to be 100%; the “Percent pigs without collaps −100 cm H2O, %” value came to 0%; the “Percent pigs without collaps −150 cm H2O, %” value worked out at 0%. Under setting [5], the “Percent pigs without collaps −50 cm H2O, %” value is on record as 100%; the “Percent pigs without collaps −100 cm H2O, %” value was found to be 0%; the “Percent pigs without collaps −150 cm H2O, %” value came out at 0%.
As for `COc1cccc(C(=O)N2CCN(Cc3c(-c4ccc(Cl)cc4)nc4ccccn34)CC2)n1` [(4-{[2-(4-Chlorophenyl)imidazo[1,2-a]pyridin-3-yl]methyl}piperazin-1-yl)(6-methoxypyridin-2-yl)methanone], the “effectiveness of dose on upper airway collapsibility” value (TASK1/TASK3 channel blocker alone, 0.3 μg intranasal) was “non effective dose”. Besides, the “Percent pigs without collaps −50 cm H2O, %” value runs as follows: under setting [6], 0%; under setting [7], 0%; under setting [8], 0%; under setting [9], 0%. The “Percent pigs without collaps −100 cm H2O, %” value is recorded as 0% under setting [6], 0% under setting [7], 0% under setting [8] and 0% under setting [9]. Moreover, the “Percent pigs without collaps −150 cm H2O, %” value was determined as 0% under setting [6], 0% under setting [7], 0% under setting [8] and 0% under setting [9].
